# In article PMC3797685, “Enhanced Production, Purification, Characterization and Mechanism of Action of Salivaricin 9 Lantibiotic Produced by Streptococcus salivarius NU10” (PLoS ONE, 2013):
# Starred links: 1 amine or outer side, 2 acyl side, 3 side chain; linkers in the order of their positions; H or OH if unused. Positions of bridges follow the written chain, without caps; N, C: chain ends. Non-standard residues stand in square brackets, D forms with d. Residues, ends and D or L forms follow the SMILES beside them. dAbu(3S-yl) = C[C@@H]([C@@H](N[*:1])C(=O)[*:2])[*:3]; Dhb = C/C=C(\N)C(=O)O
# What was measured:
# [1] = tested on: S. salivarius strain NU10; assay: Salivaricin induction assay, strain NU10; format: cell-based, Streptococcus salivarius; details: 0.05 ml test sample (titre 4 AU/ml) added to washed cells in M17YESUCa, 18 h anaerobic; well diffusion assay, induced vs control tube
# Description: (§1) The bacteriocin-inducing activities present in crude extracts of S. salivarius strains NU10, YU10, K12 and in FPLC-purified salivaricin 9 peptide fractions having anti-Micrococcus luteus activity was investigated in this study. The crude extracts of producer cells designated as BLIS-NU10, BLIS-YU10 and BLIS-K12 were isolated by acidic methanol extraction of the producer cells as described previously. These crude BLIS extracts had the potential to contain at least two lantibiotics on the basis of PCR assessment for their content of lantibiotic structural genes. Strains NU10 and YU10 had the structural genes for salivaricin 9 and salivaricin A and strain K12 had salivaricin A and salivaricin B structural genes. […] Colonies from an 18 h culture of each S. salivarius strain NU10, YU10 and K12 grown anaerobically on BACa agar was used to inoculate 10 ml of M17YESUCa broth and incubated again under the same conditions. The cells were then collected by centrifugation at 18000 x g for 5 min and washed three times in saline buffer to reduce the levels of cell surface-associated lantibiotic before suspending in 10 ml of the same buffer. […] Induction of salivaricin 9 or salivaricin A production was recorded as inhibitory zones surrounding samples from the induced tubes but not the control tubes. […]
# [2] = tested on: S. salivarius strain YU10; assay: Salivaricin induction assay, strain YU10; format: cell-based, Streptococcus salivarius; details: 0.05 ml test sample (titre 4 AU/ml) added to washed cells in M17YESUCa, 18 h anaerobic; well diffusion assay, induced vs control tube
# Description: as §1
# S. salivarius strain K12 = assay: Salivaricin induction assay, strain K12; format: cell-based, Streptococcus salivarius; details: 0.05 ml test sample (titre 4 AU/ml) added to washed cells in M17YESUCa, 18 h anaerobic; well diffusion assay, induced vs control tube
# Description: as §1
# [3] = tested on: Lactococcus lactis strain ATCC11454; assay: Induction assay, nisin-producing strain ATCC11454; format: cell-based; details: 0.05 ml test sample, 18 h, well diffusion assay
# [4] = tested on: Actinomyces naeslundii TG2; assay: Minimal inhibitory concentration (NCCLS); format: cell-based; design: key: ++++: inhibition zone >12 mm; +++: inhibition zone = 10 mm; ++: inhibition zone < 5 mm; -: No inhibition; details: pure salivaricin 9, NCCLS method
# Procedure: (§2) An induced culture of S. salivarius NU10 was centrifuged at 8000 x g to pellet the cells. The cell free supernatant (CFS) was filtered through 0.2 µm sterilized cellulose membrane (Millipore) to ensure that all cell debris was removed. The filtered crude bacteriocin preparation was passed through 100 ml XAD-16 particles (Sigma) packed in a glass column. The column was washed with 400 ml of distilled water followed by 200 ml of 70% methanol before the active fraction was eluted using 200 ml of 95% methanol (adjusted to pH 2) at a flow rate of 15 ml/min. The methanol was removed using a rotary evaporator and the resulting peptide preparation was lyophilized and stored at -20°C. The lyophilized peptide pellets were dissolved in 20 mM sodium phosphate pH 5.8 (binding buffer). Then the sample was injected into a fast protein liquid chromatography (FPLC) system (ÄKTA Purifier™) using HiTrap SP FF 5ml strong cation exchanger column (GE Healthcare) equilibrated with the same buffer at a flow rate of 1 ml/min. Then the column was washed with 10X column volume of the binding buffer before salivaricin 9 was eluted using a linear gradient of 0 to 1M NaCl in 20 mM sodium phosphate buffer at pH 5.8 (Figure 4). All fractions were tested for inhibitory activity using Micrococcus luteus as the indicator. MIC values of pure salivaricin 9 against a set of bacterial indicator strains were determined by following the National Committee for Clinical Laboratory Standards (NCCLS) (Table 3).
# [5] = tested on: Bacillus cereus ATCC14579; assay: Minimal inhibitory concentration (NCCLS); format: cell-based; design: key: ++++: inhibition zone >12 mm; +++: inhibition zone = 10 mm; ++: inhibition zone < 5 mm; -: No inhibition; details: pure salivaricin 9, NCCLS method
# Procedure: as §2
# [6] = tested on: Haemophilus parainfluenza TONEJ11; assay: Minimal inhibitory concentration (NCCLS); format: cell-based; design: key: ++++: inhibition zone >12 mm; +++: inhibition zone = 10 mm; ++: inhibition zone < 5 mm; -: No inhibition; details: pure salivaricin 9, NCCLS method
# Procedure: as §2
# [7] = tested on: Staphylococcus aureus RF122; assay: Minimal inhibitory concentration (NCCLS); format: cell-based; design: key: ++++: inhibition zone >12 mm; +++: inhibition zone = 10 mm; ++: inhibition zone < 5 mm; -: No inhibition; details: pure salivaricin 9, NCCLS method
# Procedure: as §2
# [8] = tested on: Streptococcus mutans GEJ11; assay: Minimal inhibitory concentration (NCCLS); format: cell-based; design: key: ++++: inhibition zone >12 mm; +++: inhibition zone = 10 mm; ++: inhibition zone < 5 mm; -: No inhibition; details: pure salivaricin 9, NCCLS method
# Procedure: as §2
# [9] = tested on: Streptococcus pyogenes ATCC12344; assay: Minimal inhibitory concentration (NCCLS); format: cell-based; details: pure salivaricin 9, NCCLS method
# Procedure: as §2, with “All fractions were tested for inhibitory activity using Micrococcus luteus as the indicator.” left out
# Micrococcus luteus [10] = assay: Mode of action, addition to growing culture (OD600); format: cell-based; details: added to different growth phases of Micrococcus luteus culture
# Procedure: When added to different growth phases of Micrococcus luteus culture, salivaricin 9 induced cell lysis.
# Figure 7 Bactericidal mode of action of salivaricin 9. Salivaricin 9 was added to different phases of bacterial growth. […] The sensitive bacteria Micrococcus luteus lost the ability to grow again after salivaricin 9 was added.
# [11] = tested on: Micrococcus luteus ATCC10240; assay: Flow cytometry analysis of membrane disruption (propidium iodide); format: cell-based; details: PI 25 µM, 30 minutes at 37°C
# Procedure: For membrane integrity assay using the dye propidium iodide (PI), cultures of Micrococcus luteus ATCC10240 were grown over night at 37°C in THB supplemented with 0.5% glucose (THBG) and then diluted with fresh THBG to an OD600 of 0.1. The cells were centrifuged at 4000 x g for 5 minutes at 4°C and washed twice with washing buffer (2 mM HEPES + 2 mM glucose) before re-suspending in the same buffer and adjusting to OD600 0.1. The cells were exposed to salivaricin 9 (12, 20 µg/ml) or nisin (20 µg/ml) (Sigma) and PI (final concentration 25 µM) before incubating for 30 minutes at 37°C. Nuclease-Free Water (Promega, USA) was added instead of antibiotic and served as a negative control. Samples were analyzed using BD FACSCanto^TM II flow cytometer using excitation at 488 nm and with the standard filter setup. Each sample was examined in triplicate and the geometric mean fluorescence intensity (MFI) of gated cell populations was calculated (Figure 9).
# Micrococcus luteus [12] = assay: Heat stability (residual inhibitory activity); format: physicochemical; details: for Inhibition zone after heat treatment: indicator Micrococcus luteus, titre 800 AU/ml
# Procedure: (§3) Heat stability was studied by exposing pure salivaricin 9 to different temperatures for one hour after which the sample was centrifuged and the supernatant tested for inhibitory activity. The stability of the peptide at different pH values was also evaluated and tested for inhibitory activity. Specific enzymatic effects of denaturation on salivaricin 9 were tested using two wells of 6mm diameter each separated by a distance of 4 mm in CAB plates. One well was filled with 50µl of pure salivaricin 9 while the other was filled with 50µl of the tested enzyme. The plate was incubated at 50°C for 2 hours and then incubated at 37°C overnight before seeding the indicator strain onto the agar surface using a cotton swab. Then the plate was re-incubated at 37°C for 18 hours and the zones of inhibitions that appeared indicated residual activity of salivaricin 9 while absence of inhibition zones indicated the denaturation of the antimicrobial peptide by the applied enzymes namely proteinase K, peptidase, lyticase and catalase. The stability of salivaricin 9 to treatment with the chemicals EDTA, SDS, urea, NaCl and β-mercaptoethanol was examined by adding 1% of these chemicals to the bacteriocin followed by incubation for two hours at RT before the samples were centrifuged and the supernatant tested as mentioned above. If the chemical was a solvent such as β-mercaptoethanol, then the solvent was evaporated before testing for antimicrobial activity (Table 4).
# Micrococcus luteus [13] = assay: pH stability (residual inhibitory activity); format: physicochemical; details: for Inhibition zone after pH exposure: indicator Micrococcus luteus, titre 800 AU/ml
# Procedure: as §3
# Proteinase = assay: Enzyme stability (residual inhibitory activity); format: physicochemical; details: Proteinase 1 mg.ml^-1; adjacent wells, 50 µl each; 50°C 2 hours then 37°C overnight; indicator Micrococcus luteus; titre 800 AU/ml
# Procedure: (§4) Specific enzymatic effects of denaturation on salivaricin 9 were tested using two wells of 6mm diameter each separated by a distance of 4 mm in CAB plates. One well was filled with 50µl of pure salivaricin 9 while the other was filled with 50µl of the tested enzyme. The plate was incubated at 50°C for 2 hours and then incubated at 37°C overnight before seeding the indicator strain onto the agar surface using a cotton swab. Then the plate was re-incubated at 37°C for 18 hours and the zones of inhibitions that appeared indicated residual activity of salivaricin 9 while absence of inhibition zones indicated the denaturation of the antimicrobial peptide by the applied enzymes namely proteinase K, peptidase, lyticase and catalase.
# Proteinase K = Proteinase K (Parengyodontium album, UniProt P06873); assay: Enzyme stability (residual inhibitory activity)
# Procedure: (§5) Heat stability was studied by exposing pure salivaricin 9 to different temperatures for one hour after which the sample was centrifuged and the supernatant tested for inhibitory activity. The stability of the peptide at different pH values was also evaluated and tested for inhibitory activity. Specific enzymatic effects of denaturation on salivaricin 9 were tested using two wells of 6mm diameter each separated by a distance of 4 mm in CAB plates. One well was filled with 50µl of pure salivaricin 9 while the other was filled with 50µl of the tested enzyme. The plate was incubated at 50°C for 2 hours and then incubated at 37°C overnight before seeding the indicator strain onto the agar surface using a cotton swab. Then the plate was re-incubated at 37°C for 18 hours and the zones of inhibitions that appeared indicated residual activity of salivaricin 9 while absence of inhibition zones indicated the denaturation of the antimicrobial peptide by the applied enzymes namely proteinase K, peptidase, lyticase and catalase. The stability of salivaricin 9 to treatment with the chemicals EDTA, SDS, urea, NaCl and β-mercaptoethanol was examined by adding 1% of these chemicals to the bacteriocin followed by incubation for two hours at RT before the samples were centrifuged and the supernatant tested as mentioned above. […]
# Lyticase = assay: Enzyme stability (residual inhibitory activity)
# Procedure: as §4
# Catalase = assay: Enzyme stability (residual inhibitory activity)
# Procedure: as §4
# Micrococcus luteus [14] = assay: Stability to detergents / chemicals (residual inhibitory activity); format: physicochemical; details: two hours at RT, indicator Micrococcus luteus, titre 800 AU/ml
# Procedure: as §3
# Procedure for Peptidase: as §5
# Sequence of Proteinase K (P06873 106-384): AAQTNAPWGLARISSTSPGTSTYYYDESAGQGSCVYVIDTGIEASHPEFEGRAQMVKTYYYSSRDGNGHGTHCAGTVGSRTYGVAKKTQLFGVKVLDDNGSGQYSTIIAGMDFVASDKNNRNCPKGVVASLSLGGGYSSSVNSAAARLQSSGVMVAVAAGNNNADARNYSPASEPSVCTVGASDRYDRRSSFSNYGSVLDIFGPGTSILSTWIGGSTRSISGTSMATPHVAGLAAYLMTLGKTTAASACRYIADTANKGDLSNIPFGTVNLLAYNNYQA
compound,measurement,setting,value
"C/C=C1\NC(=O)[C@H](Cc2c[nH]c3ccccc23)NC(=O)[C@@H]2NC(=O)[C@H](C)NC(=O)[C@H](CC(C)C)NC(=O)[C@H](CC(N)=O)NC(=O)[C@@H]3CS[C@@H](C)[C@@H](NC(=O)[C@H](CC(C)C)NC(=O)[C@@H](NC(=O)[C@@H](NC(=O)CNC(=O)[C@H](CC(N)=O)NC(=O)CN)C(C)C)C(C)C)C(=O)N[C@@H](CC(C)C)C(=O)N[C@@H](C(=O)N[C@@H](Cc4c[nH]cn4)C(=O)N[C@@H](CCC(=O)O)C(=O)N3)[C@H](C)SC[C@H](NC(=O)[C@H](CCCCN)NC(=O)[C@H](CC(C)C)NC(=O)[C@H](CCCCN)NC(=O)[C@H](CCCCN)NC1=O)C(=O)N[C@H](C(=O)O)CS[C@H]2C [Salivaricin 9] (H-GNGVVL[dAbu(3S-yl)]L[dAbu(3S-yl)]HECNLA[dAbu(3S-yl)]W[Dhb]KKLKCC-OH; thioether 7-12, 9-23, 16-24; N-terminus and C-terminus assumed)",Preparation induces inhibitor production in NU10,[1],Yes
same,Preparation induces inhibitor production in YU10,[2],Yes
same,Preparation induces inhibitor production in K12,S. salivarius strain K12,No
same,Preparation induces inhibitor production in ATCC11454,[3],No
same,MIC of salivaricin 9,[4],-
same,MIC of salivaricin 9,[5],-
same,MIC of salivaricin 9,[6],-
same,MIC of salivaricin 9,[7],-
same,MIC of salivaricin 9,[8],-
same,MIC of salivaricin 9,[9],32 µg/mL
same,Mode of action (OD600 after addition to culture),Micrococcus luteus [10],bactericidal and bacteriolytic
same,"Propidium iodide uptake, geometric mean fluorescence intensity (MFI)",[11]; 4 µg/ml (MIC),did not show significant increase in the MFI
same,"Propidium iodide uptake, geometric mean fluorescence intensity (MFI)","[11]; 12 µg/ml (3-fold MIC), triplicate",significant MFI increments
same,"Propidium iodide uptake, geometric mean fluorescence intensity (MFI)","[11]; 20 µg/ml, triplicate",significant MFI increments
same,Inhibition zone after heat treatment,"Micrococcus luteus [12]; 4, 20, 30, 37, 40, 50, 60, 70, 80 °C for 1 hour",++++ (inhibition zone >20 mm)
same,Inhibition zone after heat treatment,"Micrococcus luteus [12]; 90, 100 °C for 30 min",+++ (inhibition zone =20 mm)
same,Biological stability at high temperature (in words),Micrococcus luteus [12]; 90-100°C for 30 minutes,retained biological stability
same,Inhibition zone after heat treatment,Micrococcus luteus [12]; 121 °C for 20 min,-
same,Inhibition zone after pH exposure,Micrococcus luteus [13]; pH 2- 7,++++ (inhibition zone >20 mm)
same,Inhibition zone after pH exposure,Micrococcus luteus [13]; pH 8-10,+++ (inhibition zone =20 mm)
same,Inhibition zone after pH exposure,Micrococcus luteus [13]; pH 11-12,-
same,Antimicrobial activity after pH exposure (in words),Micrococcus luteus [13]; pH range of 2 to 10,retained
same,Inhibition zone after enzyme treatment,Proteinase,-
same,Inhibition zone after enzyme treatment,"Proteinase K; Proteinase K 1 mg.ml^-1, adjacent wells, 50 µl each, 50°C 2 hours then 37°C overnight, indicator Micrococcus luteus, titre 800 AU/ml",-
same,Antimicrobial activity after enzyme treatment (in words),Proteinase K; treated with proteinase K,lost all antimicrobial activity
same,Inhibition zone after enzyme treatment,"Lyticase; Lyticase 1 mg.ml^-1, adjacent wells, 50 µl each, 50°C 2 hours then 37°C overnight, indicator Micrococcus luteus, titre 800 AU/ml",++++ (inhibition zone >20 mm)
same,Antimicrobial activity after enzyme treatment (in words),Lyticase; treated with lyticase,remained active
same,Inhibition zone after enzyme treatment,"Catalase; Catalase 1 mg.ml^-1, adjacent wells, 50 µl each, 50°C 2 hours then 37°C overnight, indicator Micrococcus luteus, titre 800 AU/ml",++++ (inhibition zone >20 mm)
same,Antimicrobial activity after enzyme treatment (in words),Catalase; treated with catalase,remained active
same,Inhibition zone after detergent / chemical treatment,Micrococcus luteus [14]; EDTA 1% (w/v),++++ (inhibition zone >20 mm)
same,Inhibition zone after detergent / chemical treatment,Micrococcus luteus [14]; NaCl 1% (w/v),++++ (inhibition zone >20 mm)
same,Inhibition zone after detergent / chemical treatment,Micrococcus luteus [14]; SDS 1% (w/v),++++ (inhibition zone >20 mm)
same,Inhibition zone after detergent / chemical treatment,Micrococcus luteus [14]; Tritone X100 1% (w/v),++ (inhibition zone < 20 mm)
same,Inhibition zone after detergent / chemical treatment,Micrococcus luteus [14]; Tween 20 1% (w/v),++++ (inhibition zone >20 mm)
same,Inhibition zone after detergent / chemical treatment,Micrococcus luteus [14]; Tween 80 1% (w/v),++++ (inhibition zone >20 mm)
same,Inhibition zone after detergent / chemical treatment,Micrococcus luteus [14]; Urea 1% (w/v),++++ (inhibition zone >20 mm)
same,Inhibition zone after enzyme treatment,"Peptidase; Peptidase 1 mg.ml^-1, adjacent wells, 50 µl each, 50°C 2 hours then 37°C overnight, indicator Micrococcus luteus, titre 800 AU/ml",-
same,Antimicrobial activity after enzyme treatment (in words),Peptidase; treated with peptidase,lost all antimicrobial activity
"Nisin: pore forming lantibiotic (Sigma), produced by Lactococcus lactis (ITSISLCTPGCKTGALMGCNMKTATCHCSIHVSK; not fully specified; Lantibiotic nisin-A; UniProt P13068 24-57, looked up) [reference compound]",Preparation induces inhibitor production in NU10,[1],No
same,Preparation induces inhibitor production in YU10,[2],No
same,Preparation induces inhibitor production in K12,S. salivarius strain K12,No
same,Preparation induces inhibitor production in ATCC11454,[3],Yes
same,"Propidium iodide uptake, geometric mean fluorescence intensity (MFI)","[11]; 20 µg/ml, triplicate",large increase
